According to the NIST ThermoML archive (doi:10.1021/je501041r):

Assay: xn = mol fraction of the nth substance listed
Settings: 101 kPa, Liquid; for viscosity: Capillary tube (Ostwald / Ubbelohde) method; for mass density: Vibrating tube method

CCCCCCCO [heptan-1-ol] + CC(C)CC(C)(C)C
Settings | mass density [kg/m3] | viscosity [mPa·s]
298.15 K, x2 = 0 | 818.82 | 6.004
298.15 K, x2 = 0.1003 | 804.69 | 4.442
298.15 K, x2 = 0.2002 | 790.62 | 3.258
298.15 K, x2 = 0.3002 | 776.7 | 2.408
298.15 K, x2 = 0.3999 | 763.07 | 1.793
298.15 K, x2 = 0.5 | 749.79 | 1.349
298.15 K, x2 = 0.6 | 736.64 | 1.059
298.15 K, x2 = 0.6999 | 723.94 | 0.827
298.15 K, x2 = 0.7999 | 711.51 | 0.672
298.15 K, x2 = 0.8999 | 699.33 | 0.557
298.15 K, x2 = 0.92 | 697.03 | –
298.15 K, x2 = 0.94 | 694.61 | –
298.15 K, x2 = 0.9599 | 692.3 | –
303.15 K, x2 = 0 | 815.3 | 5.079
303.15 K, x2 = 0.1003 | 801.1 | 3.807
303.15 K, x2 = 0.2002 | 786.96 | 2.834
303.15 K, x2 = 0.3002 | 772.96 | 2.126
303.15 K, x2 = 0.3999 | 759.26 | 1.597
303.15 K, x2 = 0.5 | 745.92 | 1.224
303.15 K, x2 = 0.6 | 732.7 | 0.988
303.15 K, x2 = 0.6999 | 719.94 | 0.782
303.15 K, x2 = 0.7999 | 707.45 | 0.627
303.15 K, x2 = 0.8999 | 695.21 | 0.524
303.15 K, x2 = 0.92 | 692.88 | –
303.15 K, x2 = 0.94 | 690.48 | –
303.15 K, x2 = 0.9599 | 688.17 | –
308.15 K, x2 = 0 | 811.75 | 4.374
308.15 K, x2 = 0.1003 | 797.48 | 3.283
308.15 K, x2 = 0.2002 | 783.26 | 2.518
308.15 K, x2 = 0.3002 | 769.2 | 1.881
308.15 K, x2 = 0.3999 | 755.43 | 1.437
308.15 K, x2 = 0.5 | 742.02 | 1.13
308.15 K, x2 = 0.6 | 728.74 | 0.913
308.15 K, x2 = 0.6999 | 715.91 | 0.714
308.15 K, x2 = 0.7999 | 703.35 | 0.587
308.15 K, x2 = 0.8999 | 691.05 | 0.496
308.15 K, x2 = 0.92 | 688.71 | –
308.15 K, x2 = 0.94 | 686.3 | –
308.15 K, x2 = 0.9599 | 683.98 | –
313.15 K, x2 = 0 | 808.17 | 3.8
313.15 K, x2 = 0.1003 | 793.83 | 2.875
313.15 K, x2 = 0.2002 | 779.54 | 2.217
313.15 K, x2 = 0.3002 | 765.4 | 1.679
313.15 K, x2 = 0.3999 | 751.57 | 1.298
313.15 K, x2 = 0.5 | 738.08 | 1.018
313.15 K, x2 = 0.6 | 724.74 | 0.825
313.15 K, x2 = 0.6999 | 711.84 | 0.67
313.15 K, x2 = 0.7999 | 699.22 | 0.55
313.15 K, x2 = 0.8999 | 686.85 | 0.465
313.15 K, x2 = 0.92 | 684.51 | –
313.15 K, x2 = 0.94 | 682.09 | –
313.15 K, x2 = 0.9599 | 679.77 | –
318.15 K, x2 = 0 | 804.57 | 3.224
318.15 K, x2 = 0.1003 | 790.15 | 2.503
318.15 K, x2 = 0.2002 | 775.79 | 1.979
318.15 K, x2 = 0.3002 | 761.58 | 1.501
318.15 K, x2 = 0.3999 | 747.67 | 1.176
318.15 K, x2 = 0.5 | 734.12 | 0.934
318.15 K, x2 = 0.6 | 720.71 | 0.758
318.15 K, x2 = 0.6999 | 707.74 | 0.623
318.15 K, x2 = 0.7999 | 695.05 | 0.517
318.15 K, x2 = 0.8999 | 682.63 | 0.439
318.15 K, x2 = 0.92 | 680.27 | –
318.15 K, x2 = 0.94 | 677.84 | –
318.15 K, x2 = 0.9599 | 675.52 | –
323.15 K, x2 = 0 | 800.93 | 2.851
323.15 K, x2 = 0.1003 | 786.43 | 2.209
323.15 K, x2 = 0.2002 | 772 | 1.754
323.15 K, x2 = 0.3002 | 757.71 | 1.351
323.15 K, x2 = 0.3999 | 743.74 | 1.071
323.15 K, x2 = 0.5 | 730.12 | 0.859
323.15 K, x2 = 0.6 | 716.64 | 0.699
323.15 K, x2 = 0.6999 | 703.6 | 0.592
323.15 K, x2 = 0.7999 | 690.85 | 0.487
323.15 K, x2 = 0.8999 | 678.37 | 0.416
323.15 K, x2 = 0.92 | 675.99 | –
323.15 K, x2 = 0.94 | 673.57 | –
323.15 K, x2 = 0.9599 | 671.24 | –
